In ChEMBL document CHEMBL1201862, “PubChem BioAssay data set” (2004):
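Grown in 96-well plates, cells were treated for 48 hours with each compound at five concentrations. Insufficient inhibition: endpoint recorded as highest concentration tested. Abbreviation: GI50, concentration required for 50% inhibition of growth.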 Activity calls are given as the source filed them. No stated cut-off is given here; in the data, active = GI50 up to about 1.1 µM and inactive = higher.

Tests used:
Experiment in all cases: NCI tumour cell line growth inhibition, 48 h
786-0 = system: 786-0
A498 = system: A498
BT-549 = system: BT-549
CCRF-CEM = system: CCRF-CEM
DU-145 = system: DU-145
HCT-116 = system: HCT-116
HL-60 = system: HL-60
HOP-62 = system: HOP-62
HOP-92 = system: HOP-92
Hs-578T = system: Hs-578T
MCF7 = system: MCF7
MDA-MB-231 = system: MDA-MB-231
MDA-MB-435 = system: MDA-MB-435
Malme-3M = system: Malme-3M
NCI-H460 = system: NCI-H460
NCI/ADR-RES = system: NCI/ADR-RES
OVCAR-3 = system: OVCAR-3
RXF 393 = system: RXF 393
SNB-19 = system: SNB-19
SR = system: SR

Measured: GI50

Cc1cc(C)c2c(=N)c3ccccc3n(CCCCCCO)c2n1
inactive: 786-0 2.47 µM | A498 10.5 µM | BT-549 6.89 µM | CCRF-CEM 1.22 µM | DU-145 5.48 µM | HCT-116 3.11 µM | HL-60 2.9 µM | HOP-62 4.53 µM | HOP-92 4.26 µM | Hs-578T 3.03 µM | MCF7 2.11 µM | MDA-MB-231 3.68 µM | MDA-MB-435 4.38 µM | Malme-3M 2.63 µM | NCI-H460 1.69 µM | NCI/ADR-RES 2.31 µM | OVCAR-3 6.55 µM | RXF 393 3.21 µM | SNB-19 5.6 µM

COC(=O)/C(C#N)=C(\Nc1ccccc1)N1CCOCC1
inactive: 786-0 > 100 µM | A498 > 100 µM | BT-549 > 100 µM | DU-145 > 100 µM | HCT-116 > 100 µM | HL-60 > 100 µM | HOP-62 > 100 µM | HOP-92 > 100 µM | Hs-578T > 100 µM | MCF7 > 100 µM | MDA-MB-231 > 100 µM | MDA-MB-435 > 100 µM | Malme-3M > 100 µM | NCI-H460 > 100 µM | NCI/ADR-RES > 100 µM | OVCAR-3 > 100 µM | RXF 393 > 100 µM | SNB-19 > 100 µM | SR > 100 µM

CCCC(=O)n1[nH]c(=O)n(C(C)(C)C)c1=O
inactive: 786-0 > 100 µM | BT-549 > 100 µM | CCRF-CEM > 100 µM | DU-145 > 100 µM | HCT-116 > 100 µM | HL-60 > 100 µM | HOP-62 > 100 µM | Hs-578T > 100 µM | MCF7 > 100 µM | MDA-MB-231 > 100 µM | MDA-MB-435 > 100 µM | Malme-3M 44.1 µM | NCI-H460 > 100 µM | NCI/ADR-RES > 100 µM | OVCAR-3 > 100 µM | RXF 393 > 100 µM | SNB-19 > 100 µM | SR > 100 µM

O=c1oc2ccccc2cc1-c1csc(Nc2ccc(F)cc2)n1
inactive: 786-0 1.79 µM | A498 1.29 µM | BT-549 6.47 µM | CCRF-CEM 2.77 µM | DU-145 2.89 µM | HCT-116 2.33 µM | HL-60 4.59 µM | HOP-62 2.99 µM | HOP-92 6.53 µM | Hs-578T 2.36 µM | MCF7 2.77 µM | MDA-MB-231 11.3 µM | MDA-MB-435 4.32 µM | NCI-H460 5.05 µM | NCI/ADR-RES 3.46 µM | OVCAR-3 6.55 µM | RXF 393 6.56 µM | SNB-19 8.15 µM | SR 2.36 µM

O=CC1C[C@@H](N2C(=O)O[C@@H](c3ccccc3)[C@H]2c2ccccc2)[C@@H]1COCc1ccccc1 (stereo partly specified)
inactive: 786-0 14.3 µM | A498 20.9 µM | BT-549 20.3 µM | DU-145 17.7 µM | HCT-116 16.7 µM | HL-60 18.9 µM | HOP-62 18 µM | HOP-92 15 µM | Hs-578T 25.6 µM | MCF7 17.8 µM | MDA-MB-231 15.7 µM | MDA-MB-435 18.2 µM | Malme-3M 17 µM | NCI-H460 18.3 µM | NCI/ADR-RES 26.6 µM | OVCAR-3 14.8 µM | RXF 393 18.7 µM | SNB-19 19.9 µM | SR 10.3 µM

CCOP(=O)(CN1CCNCCNCC1)OCC
inactive: 786-0 > 100 µM | A498 > 100 µM | BT-549 > 100 µM | CCRF-CEM > 100 µM | DU-145 > 100 µM | HCT-116 > 100 µM | HL-60 92.7 µM | HOP-62 > 100 µM | HOP-92 > 100 µM | Hs-578T > 100 µM | MCF7 > 100 µM | MDA-MB-231 > 100 µM | MDA-MB-435 > 100 µM | NCI-H460 > 100 µM | NCI/ADR-RES > 100 µM | OVCAR-3 > 100 µM | SNB-19 > 100 µM | SR > 100 µM

CCOC(=O)CNc1c(OCc2ccccc2)c(=O)c1=O
inactive: 786-0 > 100 µM | BT-549 > 100 µM | CCRF-CEM > 100 µM | DU-145 > 100 µM | HCT-116 > 100 µM | HOP-62 > 100 µM | Hs-578T > 100 µM | MCF7 > 100 µM | MDA-MB-231 > 100 µM | MDA-MB-435 > 100 µM | Malme-3M > 100 µM | NCI/ADR-RES > 100 µM | OVCAR-3 > 100 µM | RXF 393 > 100 µM | SNB-19 > 100 µM | SR > 100 µM

COc1ccc(C(C)c2cc3c(cc2O)OCO3)cc1 (stereo unspecified)
inactive: 786-0 17.9 µM | A498 14.8 µM | BT-549 16.7 µM | DU-145 18.6 µM | HCT-116 15.9 µM | HL-60 13.2 µM | HOP-62 16.4 µM | HOP-92 16.3 µM | Hs-578T 20.5 µM | MCF7 15.1 µM | MDA-MB-231 14.2 µM | MDA-MB-435 4.56 µM | NCI-H460 14.7 µM | NCI/ADR-RES 10.8 µM | OVCAR-3 13.9 µM | RXF 393 14.8 µM | SNB-19 23.5 µM | SR 2.74 µM
